# Values joined by “and” are separate entries in the source; they are usually repeats but may differ in a detail not shown here. Equal entries are not always repeated.
# What was measured:
# [1] = Solubility in aqueous medium by 1H-NMR of saturated solutions
# Description: Solubilities: Determination of substance solubilities were performed through ^1H-NMR spectroscopy with a Bruker Avance III NMR-spectrometer at 600 MHz. Saturated solutions of crystalline material were placed in an incubator at 25 °C and moved for 60 min^−1. Three samples of each investigated substance were left for three days under these conditions. Subsequently, 50 μL of the solution was removed from the samples and added to 450 μL of D2O for ^1H-NMR measurements. Solubility was determined by the ratio of integrated solvent to substance peak. Solubility values are presented as averages over the recorded samples with the error margin according to their standard deviation. […]
# 7 Solubility determination details
# Solubilities were determined with 1H-NMR. Three samples for each single compound and three samples for each received maleate gained through grinding or solvent crystalliz ation were prepared. For this, dispersions of the investigated compounds in water were prepared in such a way that no complete dissolution would occur after three days at 25 °C in an incubator shaking with 60 min -1. Subsequently, 50 μL of liquid were removed from the samples and added to 450 μL of D 2O prepared in an NMR-tube. 1H-NMR measurements were conducted on a Bruker Avance III NMR-spectrometer at 600 MHz. Solubilities were determined by phase and baseline correction of the received spectrum in MestReNova software x64 14.2.0, application of D 2O shift on the solvent peak from the MestReNova […]
# database. Integration of a chosen signal in the received spectrum and furt her integration of the solvent signal. The latter signal was always integrated in the borders of 5.000 – 4.600 ppm, the product signals were integrated in as narrow a range as possible ( Table S7). Trace water in D 2O w as considered negligible. Solubilities were calculated by the following […]
# Where S p is the solubility of the API in gL -1, M p is the molar mass of the targeted API in g mol-1, I w is the value of the water integral received, n is an adjustment factor necessary if […]
# = 2 because solvent is water), M w is the molar mass of water in gmol -1 and ρw is the density of water at 25 °C in gL-1. Error was calculated as the standard deviation of the three recorded samples according to Equation 2.
# Here V is the standard deviation, x is the average of the three solubility values, x̅ each single solubility value and n the number of samples, three.
# [2] = given enough time
# Description: PXRD: Powder patterns were recorded on a Rigaku Miniflex 300 powder diffractometer with a Cu-Source and Kα radiation at […] in Θ/2Θ-geometry. Measurements were conducted at ambient temperature in a range of 5–50° 2Θ.
# [3] = cited from earlier work
# [4] = API solubility, aqueous medium, 25 °C, saturated solutions after three days, 1H-NMR, average of three samples, _M = mechanochemically prepared sample
# [5] = product obtained by grinding (mechanochemical), water, 25 °C, three days
# [6] = product obtained from solution (solvent product), water, 25 °C, three days
# [7] = Table S7, water, 25 °C, three days, three samples, _sol = solvent crystallization, _mill = grinding
# [8] = aqueous medium, 25 °C, three days
molecule,measurement,setting,value
"CC(C)CC(CN)CC(=O)O.O=C(O)C=CC(=O)O (racemic) [(rac)-3-MA, (rac)-Pregabalin maleate]",Solubility,[1]; [4],719 gL^−1
same,Solubility,"[1]; API solubility, aqueous medium, 25 °C, saturated solutions after three days, 1H-NMR, average of three samples, _M = mechanochemically prepared sample, listed as (rac)-3-MA_M",556 gL^−1
same,Sp ± V (solubility of the API ± standard deviation),"[1]; Table S7, water, 25 °C, three days, three samples, _sol = solvent crystallization, _mill = grinding, listed as (rac)-3-MA_mill",559 ± 19 gL-1
same,Sp ± V (solubility of the API ± standard deviation),"[1]; Table S7, water, 25 °C, three days, three samples, _sol = solvent crystallization, _mill = grinding, listed as (rac)-3-MA_sol",719 ± 10 gL-1
same,Solubility,[1]; [5],556 ± 19 gL^−1
same,Solubility,[1]; [6],719 ± 10 gL^−1
"CC(C)CC(CN)CC(=O)O.O=C(O)C=CC(=O)O (racemic) [(rac)-3-MA-I, (rac)-Pregabalin maleate I]",Phase stability of the solid form over time,[2],converts to (rac)-3-MA-II
"CC(C)CC(CN)CC(=O)O (racemic) [(rac)-3•H2O, (rac)-Pregabalin hydrate, reference compound]",Sp ± V (solubility of the API ± standard deviation),[1]; [7],33 ± 1 gL-1
same,Increase of API solubility in its maleate compared to the pure form,"[1]; aqueous medium, 25 °C",23 fold
same,solubility thermodynamic at 3 days,[1]; water,33 mg/mL
"NCC1(CC(=O)O)CCCCC1.O=C(O)C=CC(=O)O [2-MA, Gabapentin maleate]",Solubility,[1]; [4],218 ± 8 gL^−1
same,Solubility,"[1]; API solubility, aqueous medium, 25 °C, saturated solutions after three days, 1H-NMR, average of three samples, _M = mechanochemically prepared sample, listed as 2-MA_M",218 gL^−1
same,Sp ± V (solubility of the API ± standard deviation),[1]; [7],218 ± 8 gL-1
"NCC(CC(=O)O)c1ccccc1.O=C(O)C=CC(=O)O (stereo not drawn) [4-MA, Phenibut maleate]",Solubility,[1]; [4],124 gL^−1
same,Solubility,"[1]; API solubility, aqueous medium, 25 °C, saturated solutions after three days, 1H-NMR, average of three samples, _M = mechanochemically prepared sample, listed as 4-MA_M",128 gL^−1
same,Sp ± V (solubility of the API ± standard deviation),"[1]; Table S7, water, 25 °C, three days, three samples, _sol = solvent crystallization, _mill = grinding, listed as 4-MA_mill",128 ± 8 gL-1
same,Sp ± V (solubility of the API ± standard deviation),"[1]; Table S7, water, 25 °C, three days, three samples, _sol = solvent crystallization, _mill = grinding, listed as 4-MA_sol",124 ± 4 gL-1
same,Change of solubility of the maleate versus the pure API (in words),[1]; [8],uniform increases in solubility
"NCC(CC(=O)O)c1ccc(Cl)cc1.O=C(O)C=CC(=O)O (stereo not drawn) [5-MA, Baclofen maleate]",Solubility,[1]; [4],6 gL^−1
same,Sp ± V (solubility of the API ± standard deviation),"[1]; Table S7, water, 25 °C, three days, three samples, _sol = solvent crystallization, _mill = grinding, listed as 5-MA_mill",6 ± 0.6 gL-1
same,Sp ± V (solubility of the API ± standard deviation),"[1]; Table S7, water, 25 °C, three days, three samples, _sol = solvent crystallization, _mill = grinding, listed as 5-MA_sol",6 ± 0.3 gL-1
same,Change of solubility of the maleate versus the pure API (in words),[1]; [8],uniform increases in solubility
"CC(C)C[C@H](CN)CC(=O)O [(S)-3, (S)-Pregabalin, reference compound]",Sp ± V (solubility of the API ± standard deviation),[1]; [7],41 ± 1 gL-1
same,Increase of API solubility in its maleate compared to the pure form,"[1]; aqueous medium, 25 °C, listed as (S)-Pregabalin",21 fold
same,solubility thermodynamic at 3 days,[1]; water,41 mg/mL
"O=C(O)/C=C\C(=O)O [MA, Maleic acid]",pKa1,[3],1.74
same,pKa2,[3],5.81
same,Solubility,[1],687 ± 44 gL^−1
same,Sp ± V (solubility of the API ± standard deviation),[1],687 ± 44 gL-1
same,solubility thermodynamic at 3 days,[1]; water,687 mg/mL
"NCC1(CC(=O)O)CCCCC1 [compound 2, Gabapentin, reference compound]",pKa of the acid function,[3],around 4
same,Sp ± V (solubility of the API ± standard deviation),[1]; [7],174 ± 7 gL-1
same,solubility thermodynamic at 3 days,[1]; water,174 mg/mL
"CC(C)C[C@H](CN)CC(=O)O [compound 3, Pregabalin, reference compound]",pKa of the acid function,[3],around 4
same,Increase of API solubility in its maleate compared to the pure form,"[1]; aqueous medium, 25 °C, listed as Pregabalin",up to twentyfold
"NCC(CC(=O)O)c1ccccc1 (stereo not drawn) [compound 4, Phenibut, reference compound]",pKa of the acid function,[3],around 4
same,Sp ± V (solubility of the API ± standard deviation),[1]; [7],15 ± 0.3 gL-1
same,Increase of API solubility in its maleate compared to the pure form,"[1]; aqueous medium, 25 °C",eightfold
same,solubility thermodynamic at 3 days,[1]; water,15 mg/mL
"NCC(CC(=O)O)c1ccc(Cl)cc1 (stereo not drawn) [compound 5, Baclofen, reference compound]",pKa of the acid function,[3],around 4
same,Increase of API solubility in its maleate compared to the pure form,[1],twofold
same,Sp ± V (solubility of the API ± standard deviation),[1],3 ± 0.1 gL-1
same,solubility thermodynamic at 3 days,[1]; water,3 mg/mL
(S)-Pregabalin maleate hydrate [(S)-3-MA•H2O],Solubility,[1]; [4],977 gL^−1
same,Solubility,"[1]; API solubility, aqueous medium, 25 °C, saturated solutions after three days, 1H-NMR, average of three samples, _M = mechanochemically prepared sample, listed as (S)-3-MA•H2O_M",809 gL^−1
same,Sp ± V (solubility of the API ± standard deviation),"[1]; Table S7, water, 25 °C, three days, three samples, _sol = solvent crystallization, _mill = grinding, listed as (S)-3-MA• H2O_mill",809 ± 8 gL-1
same,Sp ± V (solubility of the API ± standard deviation),"[1]; Table S7, water, 25 °C, three days, three samples, _sol = solvent crystallization, _mill = grinding, listed as (S)-3-MA• H2O_sol",977 ± 79 gL-1
same,Solubility,[1]; [5],809 ± 8 gL^−1
same,Solubility,[1]; [6],977 ± 79 gL^−1
Gabapentin maleate hydrate [2-MA•H2O],Solubility,[1]; [4],241 ± 8 gL^−1 and 241 gL^−1
same,Sp ± V (solubility of the API ± standard deviation),[1]; [7],241 ± 8 gL-1

# From article PMC10054091, “Maleic Acid as a Co-Former for Pharmaceutically Active GABA Derivatives: Mechanochemistry or Solvent Crystallization?” (Materials, 2023)
